Laboratory results reported in patent publication US7893299B2, “Interleukin-1 and tumor necrosis factor-αmodulators; syntheses of such modulators and methods of using such modulators” (Nereus Pharmaceuticals, Inc., priority 2005, dated 2011).
“Also recorded” adds a separate entry of the source.

What was measured:
[1] = test system: PC-3 cells; test: cell growth inhibition, PC-3, Resazurin, 1% FBS; assay type: cell-based, Human; settings: 48 hr of drug exposure
Protocol: Human prostate adenocarcinoma (PC-3; CRL-1435), multiple myeloma (RPMI 8226; CCL-155) and embryonic kidney (HEK-293; CRL-1573) cells were all purchased from ATCC and maintained in appropriate culture media. The cells were cultured in an incubator at 37° C. in 5% CO2 and 95% humidified air.
For cell growth inhibition assays, PC-3 and HEK-293 cells were seeded at 5×10^3 and 1.5×10^3 cells/well respectively in 90 μl media containing 1% (v/v) FBS into 96 well (Corning; 3904) black-walled, clear-bottom tissue culture plates and the plates were incubated overnight to allow cells to establish and enter log phase growth. RPMI 8226 cells were seeded at 2×10^4 cells/well respectively in 90 μl media containing 1% (v/v) FBS into 96 well plates on the day of the assay. 4 mg/ml stock solutions of the compounds were prepared in 100% DMSO and stored at −20° C. The compounds were serially diluted and added in triplicate to the test wells. LT-1-85 was tested at concentrations ranging from 27 μM to 8.6 nM. Concentrations ranging from 30 μM to 9.7 nM were tested for CC-3-13P. Formula (IIB-A1) was tested at concentrations ranging from 26 μM to 8.4 nM. The plates were returned to the incubator for 48 hours. The final concentration of DMSO was 0.25% in all samples.
Following 48 hours of drug exposure, 10 μl of 0.2 mg/ml Resazurin in Mg2+, Ca2+ free phosphate buffered saline was added to each well and the plates were returned to the incubator for 3-6 hours. Since living cells metabolize Resazurin, the fluorescence of the reduction product of Resazurin was measured using a Fusion microplate fluorometer (Packard Bioscience) with λex=535 nm and λem=590 nm filters. Resazurin dye in medium without cells was used to determine the background, which was subtracted from the data for all experimental wells. […] Where the maximum inhibition of cell growth was less than 50%, an EC50 value was not determined. The data in Table 25 summarize the growth inhibitory effects of LT-1-85, CC-3-13P and formula (IIB-A1) against HEK-293, PC-3 and RPMI 8226 cells. The EC50 values indicate that LT-1-85 and CC-3-13P are cytotoxic against HEK-293, PC-3 and RPMI 8226 cells. Formula (IIB-A1) is cytotoxic against RPMI 8226 cells.

[2] = test system: IL-10 production; test: LPS-stimulated IL-10 levels in RPMI 8226 cells (ELISA); assay type: cell-based, human; settings: 20 μM to 0.16 μM
Protocol: Ninety μl of 2.8×10^5/ml and 0.5 ml of 5×10^5/ml RMPI 8226 cells (#CCL-155C, American Type Culture Collection) were seeded in 96-well and 6-well plate in LGM-3 medium, respectively. Cells were cultured overnight at 37° C., 5% CO2 and 95% humidified air. 8-point serial dilution of TTL3 or formula (IIB-A1) was added to cells for 1 hr at the final concentration ranging from 20 μM to 0.16 μM. DMSO was used as control. After 1 hr, 50 ng/ml of LPS diluted in LGM-3 medium from 1 mg/ml stock solution was added to stimulate the cells for additional 10 hr. Supernatants were collected and IL-8 and IL-10 levels were analyzed by using the human IL-8 and IL-10 cytoset ELISA kits.

[3] = biological target: NIK (Homo sapiens, UniProt Q99558); assay type: biochemical; settings: for inhibition of the NIK kinase activity: transfected cells stimulated with LPS/IFNγ in the presence of compound
Sequence of NIK (Q99558 whole entry): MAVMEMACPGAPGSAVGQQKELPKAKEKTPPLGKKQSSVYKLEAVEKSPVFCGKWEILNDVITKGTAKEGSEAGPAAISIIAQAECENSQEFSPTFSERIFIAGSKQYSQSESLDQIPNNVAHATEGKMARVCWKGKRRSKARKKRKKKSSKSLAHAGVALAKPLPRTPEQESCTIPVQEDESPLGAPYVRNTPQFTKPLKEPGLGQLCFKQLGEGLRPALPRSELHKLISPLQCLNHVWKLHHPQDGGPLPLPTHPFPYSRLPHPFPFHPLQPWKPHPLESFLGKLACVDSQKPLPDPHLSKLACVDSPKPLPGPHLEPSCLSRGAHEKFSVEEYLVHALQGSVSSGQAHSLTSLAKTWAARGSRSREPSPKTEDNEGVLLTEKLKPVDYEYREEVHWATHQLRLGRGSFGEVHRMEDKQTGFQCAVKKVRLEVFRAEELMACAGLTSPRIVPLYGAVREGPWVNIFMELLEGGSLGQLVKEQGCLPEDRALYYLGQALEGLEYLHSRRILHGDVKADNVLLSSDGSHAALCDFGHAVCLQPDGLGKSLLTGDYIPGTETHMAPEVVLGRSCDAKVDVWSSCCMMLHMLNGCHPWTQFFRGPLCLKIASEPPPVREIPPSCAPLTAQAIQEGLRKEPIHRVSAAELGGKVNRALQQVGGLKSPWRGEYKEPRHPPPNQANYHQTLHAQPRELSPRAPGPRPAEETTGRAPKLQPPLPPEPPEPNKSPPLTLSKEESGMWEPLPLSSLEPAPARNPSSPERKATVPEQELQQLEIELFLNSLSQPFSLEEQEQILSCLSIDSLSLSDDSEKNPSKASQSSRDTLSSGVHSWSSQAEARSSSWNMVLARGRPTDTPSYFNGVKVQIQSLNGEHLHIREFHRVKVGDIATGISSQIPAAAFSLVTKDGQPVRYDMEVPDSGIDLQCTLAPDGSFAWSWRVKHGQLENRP
Protocol: The tubes were gently vortexed for 15 s and centrifuged at 8000×g for 15 min. The supernatant (1 ml) was pre-cleared, and NIK was immunoprecipitated with 1 μg of anti-myc Ab. After extensive washing of the immunoprecipitate with buffer A, the pellet was resuspended in kinase buffer (modified buffer A containing 0.1 mM EDTA, 5 mM MgCl2 and 10 nM okadaic acid). Kinase activity was assayed in 100 μl of kinase buffer containing 100 ng of immunoprecipitate, 50 μM [γ-^32P]ATP (0.5 μCi) and 100 ng of MBP as substrate.

[4] = test system: TPA-induced ear edema; test: TPA-induced mouse ear edema model; assay type: in vivo; settings: 500 ng per ear topically with TPA, 4 h
Protocol: 2.5 μg of TPA dissolved in 20 μl of DMSO, was applied to both surfaces of the right ear of each mouse. The left ear (control) received the vehicle (DMSO). Tested compounds were administered topically (500 ng per ear in 20 μl of DMSO) simultaneously with TPA application. The reference drug, indomethacin, was administered at the same doses. After 4 h, the animals were killed by cervical dislocation and a 6 mm diameter disc from each ear was removed with a metal punch and weighed. Ear edema was calculated by subtracting the weight of the left ear (vehicle) from the right ear (treatment). Ear sections were homogenized in 750 μl of saline. After centrifugation at 10000×g for 15 min at 4° C., myeloperoxidase (MPO) activity was measured in supernatants.

[5] = test system: NO; assay type: cell-based, Murine; settings: 10 μM
Protocol: After 2 days in culture the medium was replaced by phenol-red free RPMI 1640 medium supplemented with 0.5 mM arginine and 2% FCS followed by the addition of the indicated stimuli. TTL3, TTL1, LT-1-45, LT-1-85 and formula (IIB-A1) were added to cells at the final concentration of 10 μM for 15 min. DMSO was used as a control. Cells were then stimulated with 200 ng/ml of LPS and 20 units/ml of IFNγ for 18 hr. NO release was measured as the accumulation of nitrite and nitrate in the incubation medium (phenol-red free). Nitrate was reduced to nitrite with nitrate reductase and was determined spectrophotometrically with Griess reagent. To determine the protein levels of COX-2 and NOS-2, cells (1.5×10^6) were washed with PBS and collected by centrifugation. Cell pellets were homogenized with 100 μl of buffer A (10 mM Hepes; pH 7.9, 1 mM EDTA, 1 mM EGTA, 100 mM KCl, 1 mM dithiothreitol, 0.5 mM phenylmethylsulfonyl fluoride, 2 μg/ml aprotinin, 10 μg/ml leupeptin, 2 μg/ml Nα-p-tosyl-L-lysine chloromethyl ketone, 5 mM NaF, 1 mM Na3VO4, 10 mM Na2MoO4). After 10 min at 4° C., Nonidet P-40 was added to reach a 0.5% concentration. The tubes were gently vortexed for 15 sec and centrifuged at 8,000×g for 15 min. The supernatants were stored at −80° C. until use. Protein content was assayed using the Bio-Rad protein reagent. Protein extracts were separated by 10% SDS-polyacrylamide gel electrophoresis. The gels were blotted onto a Hybond P membrane and then incubated with appropriate primary antibodies: anti-NOS-2 or anti-cyclooxygenase-2. Antibody against β-actin was used as a control to confirm the loading of each sample. […] Different exposure times of the films were used to ensure that bands were not saturated. Quantification of the films was performed by laser densitometry.

Row | Compound | EC50 ([1]; Homo sapiens, PC-3, 48 h) | LPS-induced IL-10 production [2] | LPS-induced IL-10 production ([2]; listed as formula (IIB-A1)) | inhibition of the NIK kinase activity [3] | ear edema [4] | myeloperoxidase activity [4] | ear edema ([4]; listed as formula (IIB-A1)) | synthesis of NO induced by LPS/IFNγ [5] | inhibition of the kinase activity of NIK ([3]; 1 μM directly added to the in vitro NIK kinase assay) | EC50 [1]
1 | C=C[C@@]1(C)CCC=C2[C@H]1CC[C@@H]1[C@](C)(C(=O)NC3CCCCC3)CCC[C@@]21C [Formula (IIB-A1), N-Cyclohexylamide Derivative of TTL] | > 26 µM | reduces LPS-induced IL-8 and IL-10 production in a dose-dependent manner | inhibits the LPS-induced IL-8 and IL-10 production | 70% | inhibit TPA-induced ear edema | significantly attenuated | significantly reduced | also reduced |  | 
2 | C=C[C@@]1(C)CCC=C2[C@H]1CC[C@@H]1[C@](C)(C(=O)OC)CCC[C@@]21C [TTL3] |  | inhibits the IL-10 production in a dose-dependent manner |  | 70% | significantly reduced; also recorded: inhibit TPA-induced ear edema | significantly attenuated |  | also reduced | 48% | 
3 | C=C[C@@]1(C)CCC=C2[C@H]1CC[C@@H]1[C@](C)(C(=O)N3CCOCC3)CCC[C@@]21C [LT-1-85] | 22 µM |  |  |  |  |  |  | also reduced |  | 19 µM
